Data taken from patent US8173392B2, “In vivo incorporation of unnatural amino acids” (The Scripps Research Institute, priority 2001, dated 2012).

Assays:
[1] = tested on: glutamine uptake pathway of DH10B; assay: complementation of toxic glutamine alleles S27 and S47 (cellular uptake); type: cell-based, E. coli; conditions: 2 mM, complementation of S27 (100 μM) and S47 (30 μM)
Description: To identify possible uptake pathways for toxic amino acids, toxicity assays are optionally repeated at IC50 levels, e.g., in media supplemented with an excess of a structurally similar natural amino acid. For toxic amino acids, the presence of excess natural amino acid typically rescues the ability of the cells to grow in the presence of the toxin, presumably because the natural amino acid effectively outcompetes the toxin for either cellular uptake or for binding to essential enzymes. In these cases, the toxic amino acid is optionally assigned a possible uptake pathway and labeled a “lethal allele” whose complementation is required for cell survival. These lethal alleles are extremely useful for assaying the ability of cells to uptake nontoxic unnatural amino acids. […] A lack of complementation is inconclusive. For example studies and conclusions see the examples provided below.
For toxic amino acids, the presence of excess natural amino acid rescued the ability of the cells to grow in the presence of the toxin, presumably because the natural amino acid effectively outcompeted the toxin for either cellular uptake or for binding to essential enzymes. […]
Using this method, the ability of 22 glutamine and glutamic acid analogs to be taken up by DH10B was evaluated. […]

[2] = tested on: DH10B harboring pBLAM-YQRS and pACYsupA38; assay: cell toxicity screen of unnatural amino acids in glycerol minimal media; type: cell-based, E. coli; conditions: concentration used as lethal allele at IC50 level
Description: For example, a variety of unnatural amino acids are optionally screened in minimal media for toxicity to cells. Toxicities are typically sorted into five groups: (1) no toxicity, in which no significant change in doubling times occurs; (2) low toxicity, in which doubling times increase by less than about 10%; (3) moderate toxicity, in which doubling times increase by about 10% to about 50%; (4) high toxicity, in which doubling times increase by about 50% to about 100%; and (5) extreme toxicity, in which doubling times increase by more than about 100%. […] The toxicity of the amino acids scoring as highly or extremely toxic is typically measured as a function of their concentration to obtain IC50 values.
A variety of unnatural amino acids and α-hydroxy acids of interest, obtained commercially or by short syntheses from available starting materials (I. Shin, B. Herberich, A. Varvak, T. Magliery, P. Schultz, unpublished results, were screened for cell toxicity). […] Each amino acid wasscreened at 1 mM in glycerol minimal media for toxicity to cells, e.g., to DH10B harboring pBLAM-YQRS and pACYsupA38.
The toxicity of amino acids scoring as highly or extremely toxic is typically measured as a function of their concentration to obtain IC50 values. […]

NNC(=O)CCC(N)C(=O)O (centres unmarked) [S47]
cellular uptake, possibly via the glutamine uptake pathway [1]: uptaken by cells
IC50 [2]: 30 µM
